Source: patent US12507703B2, “Methods, devices and compositions for preserving human milk” (The Trustees of Princeton University, priority 2023, dated 2025)
Where “and” joins values, the source holds several entries; their conditions need not be identical. Identical values can stand only once. Where a SMILES comes first, the peptide text is derived from it.

tested on: lipase; assay: Lipase/lipolysis assay (EnzChek Lipase Substrate, quenched BODIPY-fatty acid conjugate) on stored human milk; conditions: not given; as to Lipase (RFU): test concentration or dose not given here

| SMILES | Lipase (RFU) | Hit in lipase inhibition screen (in words) |
| --- | --- | --- |
| O=C(O)[C@H]1O[C@@H](Oc2c(-c3ccc(O)cc3)oc3cc(O)cc(O)c3c2=O)[C@H](O)[C@@H](O)[C@@H]1O [Kaempferol 3-O-β-D-glucuronide] | 1023.998 RFU |  |
| C[C@@H]1O[C@@H](O[C@H]2[C@H](Oc3c(-c4ccc(O)cc4)oc4cc(O)cc(O)c4c3=O)O[C@H](CO)[C@@H](O)[C@@H]2O)[C@H](O)[C@H](O)[C@H]1O [Kaempferol 3-neohesperidoside] | 1019.446 RFU |  |
| C[C@@H]1O[C@@H](Oc2cc(O)c3c(=O)c(O)c(-c4ccc(O)cc4)oc3c2)[C@H](O)[C@H](O)[C@H]1O [Kaempferol-7-O-rhamnoside] | 963.8327 RFU |  |
| C[C@@]12C=Cc3occc3[C@H]1CC[C@@]13C[C@@H](CC[C@H]12)[C@@](O)(CO)C3 [Kahweol] | 608.7131 RFU |  |
| CC1=CC(=O)CC(C)(C)C1=O [Ketoisophorone] | 818.3204 RFU and 1086.358 RFU |  |
| OC[C@H]1O[C@@H](Oc2cc3c(O)cc(O)cc3[o+]c2-c2ccc(O)c(O)c2)[C@H](O)[C@@H](O)[C@@H]1O.[Cl-] [Kuromanin (chloride)] | 1192.7 RFU |  |
| NC(N)=NCCC[C@H](NC(=O)[C@@H](N)Cc1ccc(O)cc1)C(=O)O [Kyotorphin] | 988.5967 RFU |  |
| C[C@H](N)C(=O)NCC(=O)O [L-Alanyl-Glycine] (H-Ala-Gly-OH) | 816.3246 RFU |  |
| OC[C@H](O)C(O)[C@@H](O)CO [L-Arabitol] | 912.8862 RFU |  |
| Cl.N=C(N)NCCC[C@H](N)C(=O)O [L-Arginine (hydrochloride)] | 1273.102 RFU |  |
| N=C(N)NCCC[C@H](N)C(=O)O [L-Arginine] | 753.4686 RFU and 980.9809 RFU and 913.1858 RFU |  |
| N[C@@H](CC(=O)O)C(=O)[O-].[Na+] [L-Aspartic aicd (sodium)] | 708.7772 RFU and 1026.622 RFU |  |
| O=C(O)[C@@H]1CCN1 [L-Azetidine-2-carboxylic acid] | 953.3787 RFU |  |
| N=C(N)NOCC[C@H](N)C(=O)O.O=S(=O)(O)O [L-Canavanine sulfate] | 903.0256 RFU |  |
| O=C(/C=C/c1ccc(O)c(O)c1)O[C@H](C(=O)O)[C@H](OC(=O)/C=C/c1ccc(O)c(O)c1)C(=O)O [L-Chicoric Acid] | 1257.708 RFU |  |
| NC(=O)NCCC[C@H](N)C(=O)O [L-Citrulline] | 1167.04 RFU and 809.9531 RFU |  |
| N[C@@H](CS(=O)O)C(=O)O [L-Cysteine Sulfinic Acid] | 845.2477 RFU |  |
| N[C@@H](CS(=O)O)C(=O)O [L-Cysteinesulfinic acid] | 867.5137 RFU |  |
| N[C@@H](CS)C(=O)NCC(=O)O [L-Cysteinyl-Glycine] | 708.9877 RFU |  |
| NCC[C@H](N)C(=O)O [L-DABA] | 650.1144 RFU |  |
| O=C1C[C@@H](C(=O)O)NC(=O)N1 [L-Dihydroorotic acid] | 1002.656 RFU |  |
| N[C@@H](CSCSC[C@H](N)C(=O)O)C(=O)O [L-Djenkolic Acid] | 317.7642 RFU | significantly inhibited lipase activity |
| N[C@@H](CCC(=O)O)C(=O)O [L-Glutamic Acid] | 1101.527 RFU and 821.1812 RFU |  |

| SMILES | Lipase (RFU) | Hit in lipase inhibition screen (in words) |
| --- | --- | --- |
| O=C([O-])[C@@H](O)CO.[Na+] [L-Glyceric acid (sodium)] | 822.8712 RFU |  |
| O=C1O[C@H]([C@@H](O)CO)[C@H](O)[C@@H]1O [L-Gulono-1,4-lactone] | 1139.877 RFU |  |
| CCCCCC(=O)O[C@H](CC(=O)[O-])C[N+](C)(C)C [L-Hexanoylcarnitine] | 948.6206 RFU |  |
| NC(=O)NCCCC[C@H](N)C(=O)O [L-Homocitrulline] | 822.9997 RFU |  |
| N[C@H]1CCOC1=O [L-Homoserine Lactone] | 1108.032 RFU |  |
| Nc1ccccc1C(=O)C[C@H](N)C(=O)O [L-Kynurenine] | 761.0277 RFU |  |
| NCCCC[C@H](N)C(=O)O [L-Lysine] | 909.5913 RFU and 1084.77 RFU and 881.5409 RFU and 1310.906 RFU |  |
| O=C(O)C[C@H](O)C(=O)O [L-Malic Acid] | 1144.049 RFU |  |
| CS(=O)(=O)CC[C@H](N)C(=O)O [L-Methionine Sulfone] | 897.1863 RFU |  |
| CCCCCCCC(=O)O[C@H](CC(=O)[O-])C[N+](C)(C)C [L-Octanoylcarnitine] | 1071.191 RFU |  |
| O=C(CO)[C@@H](O)[C@H](O)[C@@H](O)CO [L-Sorbose] | 1197.031 RFU |  |
| N[C@@H](Cc1c[nH]c2ccccc12)C(=O)O [L-Tryptophan] | 1074.461 RFU and 1239.076 RFU |  |
| CC(O)C(=O)[O-].CC(O)C(=O)[O-].[Ca+2] (centres unmarked) [Lactate (calcium)] | 763.893 RFU |  |
| OC[C@H]1O[C@@H](O[C@H]2[C@H](O)[C@@H](O)[C@@H](O)O[C@@H]2CO)[C@H](O)[C@@H](O)[C@H]1O [Lactose] | 912.5223 RFU |  |
| C=C1C(=O)O[C@@H]2[C@H]3C(CO)=CC(=O)C3=C(C)C[C@H](OC(=O)Cc3ccc(O)cc3)[C@@H]12 [Lactupicrin] | 995.7975 RFU |  |
| CC(C)CCC[C@@H](C)[C@H]1CC[C@H]2C3=CC[C@H]4C[C@@H](O)CC[C@]4(C)[C@H]3CC[C@]12C [Lathosterol] | 1017.106 RFU |  |
| Oc1cc(O)c2c(c1)OC(c1ccc(O)c(O)c1)C(O)C2O (centres unmarked) [Leucocyanidin] | 957.6226 RFU |  |
| C=CC(C)(CCC=C(C)C)OC(C)=O (centres unmarked) [Linalyl acetate] | 753.0162 RFU and 717.2876 RFU |  |
| COc1ccc(-c2cc(=O)c3c(O)cc(O[C@@H]4O[C@H](CO[C@@H]5O[C@@H](C)[C@H](O)[C@@H](O)[C@H]5O)[C@@H](O)[C@H](O)[C@H]4O)cc3o2)cc1 [Linarin] | 989.9197 RFU |  |
| CCCCC/C=C/C/C=C/CCCCCCCC(=O)O [Linolelaidic acid] | 831.2921 RFU |  |
| O=C(O)CCCCC1CCSS1 (centres unmarked) [Lipoic acid] | 1146.052 RFU |  |
| CC(C)=CCc1c(O)cc(O)c2c(=O)c(-c3ccc(O)cc3)coc12 [Lupiwighteone] | 1206.447 RFU |  |
| O=C(O)[C@H]1O[C@@H](Oc2cc(O)c3c(=O)cc(-c4ccc(O)c(O)c4)oc3c2)[C@H](O)[C@@H](O)[C@@H]1O [Luteolin 7-O-glucuronide] | 995.7867 RFU |  |

| SMILES | Lipase (RFU) | Hit in lipase inhibition screen (in words) |
| --- | --- | --- |
| Oc1cc(O)c2ccc(-c3ccc(O)c(O)c3)[o+]c2c1.[Cl-] [Luteolinidin (chloride)] | 933.7809 RFU |  |
| CCCCCCCCCCCCCC(=O)OC[C@@H](O)COP(=O)([O-])OCC[N+](C)(C)C [LysoPC(14:0/0:0)] | 1043.126 RFU |  |
| COc1cc(C[C@H](C)[C@H](C)Cc2ccc3c(c2)OCO3)ccc1O [Macelignan] | 621.9317 RFU |  |
| C=CCc1ccc(O)c(-c2cc(CC=C)ccc2O)c1 [Magnolol] | 941.9616 RFU |  |
| OC[C@@H](O)[C@@H](O[C@H]1O[C@H](CO)[C@@H](O)[C@H](O)[C@H]1O)[C@H](O)[C@@H](O)CO [Maltitol] | 943.5543 RFU |  |
| C=C[C@](C)(O)CC[C@H]1C(=C)CC[C@H]2C(C)(C)CCC[C@]12C [Manool] | 923.6944 RFU |  |
| CC1(C)CC[C@]2(C(=O)O)CC[C@]3(C)C(=CC[C@@H]4[C@@]5(C)C[C@@H](O)[C@H](O)C(C)(C)[C@@H]5CC[C@]43C)[C@@H]2C1 [Maslinic acid] | 1120.923 RFU |  |
| CC1O[C@@H](OC[C@H]2O[C@@H](Oc3c(-c4ccc(O)cc4)oc4cc(O)cc(O)c4c3=O)C(O[C@@H]3O[C@H](C)[C@H](O)C(O)C3O)C(O)[C@H]2O)C(O)[C@@H](O)[C@H]1O (some centres unmarked) [Mauritianin] | 860.4015 RFU |  |
| CNC(C)(C)C(=O)O [MeAIB] | 1061.964 RFU |  |
| CC1(C)CC[C@]2(C(=O)O)CC[C@]3(C)C(=CC[C@@H]4[C@@]5(C)C[C@H](O)[C@H](O)[C@@](C)(C(=O)O)[C@@H]5CC[C@]43C)[C@@H]2C1 [Medicagenic acid] | 975.8957 RFU |  |
| O=C(O)[C@H](O)[C@@H](O)[C@H](O)[C@H](O)CO[C@H]1O[C@H](CO)[C@H](O)[C@H](O)[C@H]1O [Melibionic Acid] | 917.5297 RFU |  |
| O=c1cc(-c2ccc(O)cc2)oc2cc(O)c([C@@H]3O[C@H](CO)[C@@H](O)[C@H](O)[C@H]3O[C@@H]3O[C@H](CO)[C@@H](O)[C@H](O)[C@H]3O)c(O)c12 [Meloside A] | 811.3753 RFU |  |
| CC(C)=CCC/C(C)=C/CC/C(C)=C/CC/C(C)=C/CC1=C(C)C(=O)c2ccccc2C1=O [Menaquinone-4] | 987.2266 RFU |  |
| COC(=O)c1ccc(OC)cc1 [Methyl anisate] | 1101.708 RFU and 911.2014 RFU |  |
| COC(=O)c1cccnc1 [Methyl nicotinate] | 1069.07 RFU and 773.2703 RFU |  |
| COC(=O)[C@]12CCC(C)(C)C[C@H]1C1=CC[C@@H]3[C@@]4(C)CCC(=O)C(C)(C)[C@@H]4CC[C@@]3(C)[C@]1(C)CC2 [Methyl oleanonate] | 912.7431 RFU |  |
| C/C1=C2/[N-][C@H]([C@H](CC(N)=O)[C@@]2(C)CCC(=O)NC[C@H](C)OP(=O)([O-])O[C@H]2[C@@H](O)[C@@H](n3cnc4cc(C)c(C)cc43)O[C@@H]2CO)[C@]2(C)N=C(/C(C)=C3N=C(/C=C4N=C1[C@@H](CCC(N)=O)C\4(C)C)[C@@H](CCC(N)=O)[C@]\3(C)CC(N)=O)[C@@H](CCC(N)=O)[C@]2(C)CC(N)=O.[CH3-].[Co+3] [Methylcobalamin] | 1187.639 RFU |  |
| CC(C(=O)O)C(=O)O [Methylmalonic acid] | 883.2913 RFU |  |
| COC1=CC(=O)O[C@@H](/C=C/c2ccc3c(c2)OCO3)C1 [Methylsticin] | 1261.171 RFU |  |
| O=C(O)C1=CO[C@@H](O[C@@H]2O[C@H](CO)[C@@H](O)[C@H](O)[C@H]2O)[C@H]2[C@@H]1C=C[C@]2(O)CO [Monotropein] | 976.474 RFU |  |
| CC(C)(O)C1Cc2cc3cc(-c4cc(O)cc(O)c4)oc3cc2O1 (centres unmarked) [Moracin O] | 899.9132 RFU |  |
| CC1(C)Oc2cc3oc(-c4cc(O)cc(O)c4)cc3cc2C[C@H]1O [Moracin P] | 751.9577 RFU |  |

same assay, conditions: (hydrochloride)

| SMILES | Lipase (RFU) |
| --- | --- |
| Cl.N[C@@H](CS)C(=O)O [L-Cysteine (hydrochloride)] | 936.4597 RFU and 1023.471 RFU |
| Cl.NCCCC[C@H](N)C(=O)O [L-Lysine hydrochloride] | 1184.747 RFU and 890.5892 RFU |
